Data reported in ChEMBL document CHEMBL1135808, “A new type of mixed anhydride and its applications to the synthesis of 7-substituted 8-chloro-5,5-dioxoimidazo[1,2-b][1,4,2]benzodithiazines with in vitro antitumor activity” (2002).

Key:
[1] = test system: HOP-62; assay: In vitro growth inhibition against non-small-cell lung cancer HOP-62 cell line was reported.; type: functional; settings: Homo sapiens
[2] = test system: PC-3; assay: In vitro total growth inhibition against prostate cancer PC-3 cell lines was reported.; type: functional; settings: Homo sapiens, read-out: Log TGI (converted)
[3] = test system: EKVX; assay: Log of molar concentration leading to 50% cell death against non-small-cell lung cancer EKVX cell line was reported; type: functional; settings: Homo sapiens, read-out: Log LC50 (the source's name) (converted)
[4] = test system: T47D; assay: In vitro total growth inhibition against breast cancer […] cell lines was reported.; type: functional; settings: Homo sapiens, read-out: Log TGI (converted)
[5] = test system: NCI-H522; assay: In vitro total growth inhibition against non-small-cell lung cancer NCI-522 cell lines was reported.; type: functional; settings: Homo sapiens, read-out: Log TGI (converted)
[6] = test system: PC-3; assay: In vitro growth inhibition against prostate cancer PC-3 cell line was reported.; type: functional; settings: Homo sapiens
[7] = test system: SF-539; assay: In vitro growth inhibition against CNS cancer SF-539 cell line was reported.; type: functional; settings: Homo sapiens
[8] = test system: COLO 205; assay: Log of molar concentration leading to 50% cell death against colon cancer COLO 205 cell line was reported; type: functional; settings: Homo sapiens, read-out: Log LC50 (the source's name) (converted)
[9] = test system: Malme-3M; assay: In vitro growth inhibition against melanoma MALME 3M cell line was reported.; type: functional; settings: Homo sapiens
[10] = test system: 786-0; assay: In vitro total growth inhibition against renal cancer […] cell lines was reported.; type: functional; settings: Homo sapiens, read-out: Log TGI (converted)
[11] = test system: COLO 205; assay: In vitro total growth inhibition against colon cancer COLO 205 cell lines was reported.; type: functional; settings: Homo sapiens, read-out: Log TGI (converted)
[12] = test system: SF-539; assay: Log of molar concentration leading to 50% cell death against CNS cancer SF-539 cell line was reported; type: functional; settings: Homo sapiens, read-out: Log LC50 (the source's name) (converted)
[13] = test system: SNB-75; assay: In vitro total growth inhibition against CNS cancer SNB-75 cell lines was reported.; type: functional; settings: Homo sapiens, read-out: Log TGI (converted)
[14] = test system: SNB-19; assay: In vitro growth inhibition against CNS cancer SNB-19 cell line was reported.; type: functional; settings: Homo sapiens
[15] = test system: SW-620; assay: In vitro growth inhibition against colon cancer SW620 cell line was reported.; type: functional; settings: Homo sapiens
[16] = test system: CCRF-CEM; assay: In vitro growth inhibition against leukemia CCRF-CEM cell line was reported.; type: functional; settings: Homo sapiens
[17] = test system: LOX IMVI; assay: In vitro total growth inhibition against melanoma LOX IMVI cell lines was reported.; type: functional; settings: Homo sapiens, read-out: Log TGI (converted)
[18] = test system: A498; assay: In vitro growth inhibition against renal cancer A498 cell line was reported.; type: functional; settings: Homo sapiens
[19] = test system: LOX IMVI; assay: In vitro growth inhibition against melanoma LOX IMVI cell line was reported.; type: functional; settings: Homo sapiens
[20] = test system: RPMI-8226; assay: In vitro growth inhibition against leukemia […] cell line was reported.; type: functional; settings: Homo sapiens
[21] = test system: MOLT-4; assay: In vitro total growth inhibition against leukemia MOLT-4 cell lines was reported.; type: functional; settings: Homo sapiens, read-out: Log TGI (converted)
[22] = test system: HT-29; assay: In vitro growth inhibition against colon cancer HT-29 cell line was reported.; type: functional; settings: Homo sapiens
[23] = test system: MDA-N; assay: In vitro total growth inhibition against breast cancer MDA-N cell lines was reported.; type: functional; settings: Homo sapiens, read-out: Log TGI (converted)
[24] = test system: OVCAR-4; assay: In vitro total growth inhibition against ovarian cancer OVCAR-4 cell lines was reported.; type: functional; settings: Homo sapiens, read-out: Log TGI (converted)
[25] = test system: NCI-H522; assay: In vitro growth inhibition against non-small-cell lung cancer […] cell line was reported.; type: functional; settings: Homo sapiens
[26] = test system: SK-MEL-2; assay: In vitro growth inhibition against melanoma SK-MEL-2 cell line was reported.; type: functional; settings: Homo sapiens
[27] = test system: KM12; assay: In vitro total growth inhibition against colon cancer KM12 cell lines was reported.; type: functional; settings: Homo sapiens, read-out: Log TGI (converted)
[28] = test system: UACC-62; assay: In vitro growth inhibition against melanoma UACC-62 cell line was reported.; type: functional; settings: Homo sapiens
[29] = test system: MDA-MB-435; assay: In vitro growth inhibition against breast cancer MDA-MB-435 cell line was reported.; settings: Homo sapiens
[30] = test system: DU-145; assay: In vitro total growth inhibition against prostate cancer […] cell lines was reported.; type: functional; settings: Homo sapiens, read-out: Log TGI (converted)
[31] = test system: Tumor Cell line; assay: In vitro inhibition of 50% cell growth was reported as log of molar concentration for 60 cell lines.; type: functional; settings: Homo sapiens
[32] = test system: Tumor Cell line; assay: Log of molar concentration leading to 50% cell death was reported; type: functional; settings: Homo sapiens, read-out: Log LC50 (the source's name) (converted)
[33] = test system: HCT-15; assay: In vitro growth inhibition against colon cancer […] cell line was reported.; type: functional; settings: Homo sapiens
[34] = test system: SR; assay: In vitro growth inhibition against leukemia SR cell line was reported.; type: functional; settings: Homo sapiens
[35] = test system: UO-31; assay: In vitro total growth inhibition against renal cancer UO-31 cell lines was reported.; type: functional; settings: Homo sapiens, read-out: Log TGI (converted)
[36] = test system: RXF 393; assay: In vitro growth inhibition against renal cancer RXF 393 cell line was reported.; type: functional; settings: Homo sapiens
[37] = test system: OVCAR-3; assay: In vitro growth inhibition against ovarian cancer OVCAR-3 cell line was reported.; type: functional; settings: Homo sapiens
[38] = test system: CAKI-1; assay: In vitro growth inhibition against renal cancer CAKI-1 cell line was reported.; type: functional; settings: Homo sapiens
[39] = test system: SF-268; assay: In vitro growth inhibition against CNS cancer SF-268 cell line was reported.; type: functional; settings: Homo sapiens
[40] = test system: IGROV-1; assay: In vitro growth inhibition against ovarian cancer IGROV1 cell line was reported.; type: functional; settings: Homo sapiens
[41] = test system: A498; assay: In vitro total growth inhibition against renal cancer A-498 cell lines was reported.; type: functional; settings: Homo sapiens, read-out: Log TGI (converted)
[42] = test system: HCT-116; assay: In vitro growth inhibition against colon cancer HCT116 cell line was reported.; type: functional; settings: Homo sapiens
[43] = test system: NCI/ADR-RES; assay: In vitro growth inhibition against breast cancer NCI/ADR-RES cell line was reported.; type: functional; settings: Homo sapiens
[44] = test system: OVCAR-3; assay: Log of molar concentration leading to 50% cell death against ovarian cancer OVCAR-3 cell line was reported; type: functional; settings: Homo sapiens, read-out: Log LC50 (the source's name) (converted)
[45] = test system: CAKI-1; assay: In vitro total growth inhibition against renal cancer CAKI-1cell lines was reported.; type: functional; settings: Homo sapiens, read-out: Log TGI (converted)
[46] = test system: M14; assay: In vitro total growth inhibition against melanoma M14 cell lines was reported.; type: functional; settings: Homo sapiens, read-out: Log TGI (converted)
[47] = test system: U-251; assay: In vitro total growth inhibition against CNS cancer U251 cell lines was reported.; type: functional; settings: Homo sapiens, read-out: Log TGI (converted)
[48] = test system: HCT-15; assay: In vitro total growth inhibition against colon cancer HCT-15 cell lines was reported.; type: functional; settings: Homo sapiens, read-out: Log TGI (converted)
[49] = test system: A549; assay: In vitro total growth inhibition against non-small-cell lung cancer A 549/ATCC cell lines was reported.; type: functional; settings: Homo sapiens, read-out: Log TGI (converted)
[50] = test system: SK-OV-3; assay: In vitro growth inhibition against ovarian cancer SK-OV-3 cell line was reported.; type: functional; settings: Homo sapiens
[51] = test system: RXF 393; assay: In vitro total growth inhibition against renal cancer RXF 393 cell lines was reported.; type: functional; settings: Homo sapiens, read-out: Log TGI (converted)
[52] = test system: HL-60; assay: Log of molar concentration leading to 50% cell death against leukemia HL-60(TB) cell line was reported; type: functional; settings: Homo sapiens, read-out: Log LC50 (the source's name) (converted)
[53] = test system: NCI-H522; assay: Log of molar concentration leading to 50% cell death against non-small-cell lung cancer NCI-522 cell line was reported; type: functional; settings: Homo sapiens, read-out: Log LC50 (the source's name) (converted)
[54] = test system: NCI-H46; assay: Log of molar concentration leading to 50% cell death against non-small-cell lung cancer […] cell line was reported; type: functional; settings: Homo sapiens, read-out: Log LC50 (the source's name) (converted)
[55] = test system: SW-620; assay: In vitro total growth inhibition against colon cancer SW-620 cell lines was reported.; type: functional; settings: Homo sapiens, read-out: Log TGI (converted)
[56] = test system: NCI-H322M; assay: Log of molar concentration leading to 50% cell death against non-small-cell lung cancer NCI-H322M cell line was reported; type: functional; settings: Homo sapiens, read-out: Log LC50 (the source's name) (converted)
[57] = test system: UACC-257; assay: In vitro total growth inhibition against melanoma UACC-257 cell lines was reported.; type: functional; settings: Homo sapiens, read-out: Log TGI (converted)
[58] = test system: Hs-578T; assay: In vitro growth inhibition against breast cancer HS 578T cell line was reported.; type: functional; settings: Homo sapiens
[59] = test system: OVCAR-8; assay: Log of molar concentration leading to 50% cell death against ovarian cancer OVCAR-8 cell line was reported; type: functional; settings: Homo sapiens, read-out: Log LC50 (the source's name) (converted)
[60] = test system: EKVX; assay: In vitro growth inhibition against non-small-cell lung cancer EKVX cell line was reported.; type: functional; settings: Homo sapiens
[61] = test system: SF-539; assay: In vitro total growth inhibition against CNS cancer SF-539 cell lines was reported.; type: functional; settings: Homo sapiens, read-out: Log TGI (converted)

Work on O=C(Nc1cccc2nsnc12)c1cc2c(cc1Cl)Sc1nccn1S2(=O)=O yielded a GI50 [1] of 1.66 µM, a TGI [2] of 3.55 µM and a CC50 [3] of 9.77 µM. For the same compound, the TGI [4] was 5.75 µM, the TGI [5] was 22.4 µM and the GI50 [6] was 1.91 µM. It also gave a GI50 [7] of 2.24 µM, a CC50 [8] of 56.2 µM and a GI50 [9] of 66.1 µM. The TGI [10] was 30.2 µM, the TGI [11] was 30.9 µM and the CC50 [12] was 15.5 µM. For the same compound, the TGI [13] was 26.9 µM, the GI50 [14] was 12 µM and the GI50 [15] was 12 µM. It also gave a GI50 [16] of 3.24 µM, a TGI [17] of 40.7 µM and a GI50 [18] of 13.5 µM. It also gave a GI50 [19] of 5.25 µM, a GI50 [20] of 2.09 µM and a TGI [21] of 9.33 µM. For the same compound, the GI50 [22] was 2.24 µM, the TGI [23] was 27.5 µM and the TGI [24] was 10.2 µM. It also gave a GI50 [25] of 5.37 µM, a GI50 [26] of 10 µM and a TGI [27] of 3.89 µM. The GI50 [28] was 5.37 µM, the GI50 [29] was 8.13 µM and the TGI [30] was 3.24 µM. The GI50 [31] was 45.7 µM, the CC50 [32] was 95.5 µM and the GI50 [33] was 5.25 µM. The GI50 [34] was 2 µM, the TGI [35] was 4.37 µM and the GI50 [36] was 4.68 µM. For the same compound, the GI50 [37] was 1.78 µM, the GI50 [38] was 4.79 µM and the GI50 [39] was 3.39 µM. For the same compound, the GI50 [40] was 5.5 µM, the TGI [41] was 26.3 µM and the GI50 [42] was 2.57 µM. The GI50 [43] was 17.8 µM, the CC50 [44] was 6.61 µM and the TGI [45] was 19.1 µM. The TGI [46] was 46.8 µM, the TGI [47] was 15.8 µM and the TGI [48] was 21.4 µM. The TGI [49] was 38.9 µM, the GI50 [50] was 45.7 µM and the TGI [51] was 28.8 µM. The CC50 [52] was 7.41 µM, the CC50 [53] was 89.1 µM and the CC50 [54] was 8.91 µM. For the same compound, the TGI [55] was 46.8 µM, the CC50 [56] was 5.75 µM and the TGI [57] was 3.39 µM. For the same compound, the GI50 [58] was 4.17 µM, the CC50 [59] was 38 µM and the GI50 [60] was 2.29 µM. It also gave a TGI [61] of 4.9 µM.
